Experimental data: patent US20110195116A1, “RATE MODULATED DELIVERY OF DRUGS FROM A COMPOSITE DELIVERY SYSTEM” (ADCOCK INGRAM HEALTHCARE PTY LIMITED, priority 2008, published 2011)
Counter-ions that a name gives are not always drawn. Like-named read-outs stand apart in the source and are kept apart here.

Assays:
[1] = dissolution study, USP paddle, simulated gastric fluid pH 1.2 without pepsin; type: physicochemical; details: cellulose, polyethylene oxide and alginate polymer formulations
Protocol: (§1) Dissolution studies were conducted using a USP rotating paddle method (Hanson Virtual Instruments SR8 Plus Dissolution Test Stations) at 50 rpm in phosphate buffer pH 6.8 (900 mL, 37° C.±0.5° C.) for each formulation employing an autosampler (Hanson Research Auto Plus Maximiser and AutoPlus™ MultiFill™). Samples of 1.6 mL were withdrawn over a period of 12 to 20 hours and analysed via HPLC. Release profiles in simulated gastric fluid pH 1.2 without pepsin over a period of four hours were determined to identify any site-specific release induced by the polymers. The dissolution studies were performed under the conditions described in Table 1.
The alginate and zinc gluconate addition was then included in a formulation where the HEC and HPC had been further reduced to 45.31 mg and 90.6 mg respectively (FIG. 16).
In order to establish the potential site-specific release potential of the polymeric dosage form, formulations consisting of cellulose, polyethylene oxide and alginate polymers were subjected to dissolution studies in simulated gastric fluid pH 1.2 without pepsin.

[2] = dissolution study, USP paddle, phosphate buffer pH 6.8; type: physicochemical
Protocol: Initial dissolution characteristics of the combined APIs paracetamol, tramadol hydrochloride and diclofenac potassium; individual and combined cellulose and ethylene oxide-based polymers were determined by producing experimental batches of tablets. These were produced on a Manesty Single Punch Type F3 machine by direct compression and wet granulation techniques into monolithic matrix and multi-layered systems, as shown in FIG. 1. In situ crosslinking of various alginate, pectin and eudragit polymers with salts such as zinc gluconate was also investigated for an influence on the release characteristics of the solid dosage system.
as §1

[3] = in vivo; cited from earlier work
[4] = cited from earlier work
[5] = dosage form with pectin, alginate and eudragit polymers crosslinked with metallic salts

## O=C(O)Cc1ccccc1Nc1c(Cl)cccc1Cl [diclofenac potassium]
[1]
  release in simulated gastric fluid: not released
[2]; cellulose and polyethylene oxide-based formulation compressed as layered dosage form
  release kinetics: zero-order
[2]; cellulose and polyethylene oxide-based formulation compressed as monolithic matrix
  release kinetics: first-order
[2]; [5]
  release kinetics: zero-order

## COc1cccc(C2(O)CCCCC2CN(C)C)c1 (stereo not drawn) [Tramadol]
[3]
  elimination half-life (t1/2): 6 h

## CC(=O)Nc1ccc(O)cc1 [Paracetamol]
[4]; at 20° C.
  water solubility: 1.4%
[2]; [5]
  release kinetics: first-order

## O=C(O)Cc1ccccc1Nc1c(Cl)cccc1Cl [Diclofenac]
[4]; at pH 6.8
  water solubility: 0.187%

## COc1cccc(C2(O)CCCCC2CN(C)C)c1 (stereo not drawn) [tramadol hydrochloride]
[2]; [5]
  release kinetics: first-order
